Where two headings read alike, the source gives them in different places.
Tested on: LPS-stimulated pERK in monocytes (TPL2 pathway)
Assay: Ex vivo LPS-stimulated pERK in monocytes of whole blood after Compound 1 dosing (flow cytometry)
Set-up: species or system human
Settings: for inhibition at 75 mg: Homo sapiens, Monocyte, 75 mg QD multiple dose, read-out: pERK Signal, % Inhibition
Method: For Cohorts 1-4, whole blood PD sampling occurred relative to the dose of Compound 1 at the following time points: • Day 1: 0 pre-dose (≤5 min prior to dosing), 1, 2, 3, 4, 8, 12, 24 and 36 hours post-dose
For Cohorts 5-9, whole blood PD sampling occurred relative to the dose of Compound 1 at the following time points: • Day 1: 0 pre-dose (≤5 min prior to dosing), 1, 2, 3, 4, 8, 12, and 24 hours post-dose • Day 10: 0 pre-dose (≤5 min prior to dosing), 1, 2, 3, 4, 8, 12, 24, 36, 48, 72, 96, and 120 hours post-dose
Whole blood PD Samples were stimulated ex vivo with lipopolysaccharide (LPS) or phosphate buffered saline (PBS), and the phosphorylation of extracellular signal-related kinase (pERK) was detected in monocytes by flow cytometry.
Pharmacodynamic changes after single and multiple doses of Compound 1 were also investigated by monitoring, in whole blood samples, stimulated with either lipopolysaccharide (LPS) or PBS for 15 minutes at 37° C. Changes to the phosphorylation of extracellular signal-regulated kinases (pERK) was measured in monocytes by flow cytometry, defined as CD15−CD14+.
Pharmacodynamic parameters for Compound 1 were calculated as percent change in pERK signal relative to Day 1 pre-dose (baseline) for all evaluable participants.
Multiple Ascending Doses: Pharmacodynamic parameters after multiple doses of Compound 1 were also calculated as percent change in pERK signal relative to Day 1 pre-dose (baseline) for all evaluable participants.

SMILES: Cn1ccc2c([C@@H](c3cn(C45CC(C4)C5)nn3)N(C(=O)OCOP(=O)(O)O)c3cc(Cl)c4ncc(C#N)c(NCC(C)(C)C)c4c3)cccc2c1=O [Compound 1]
- median percent change in pERK relative to baseline (75 mg QD, Day 10, 12 hours post-last dose): −48.3%
- median percent change in pERK relative to baseline (75 mg QD, Day 10, 24 hours post last dose): −39.8%
- median change in pERK relative to baseline (75 mg single dose, 3 hours post-dose): −86.8%
- median change in pERK relative to baseline (75 mg single dose, 12 hours post-dose): −51.3%
- pERK Signal, % Inhibition (75 mg single dose, Day 1 1 hour, mean (SD)): 56.4 (13.04) %
- pERK Signal, % Inhibition (75 mg single dose, Day 1 1 hour, median): 62.9%
- pERK Signal, % Inhibition (75 mg single dose, Day 1 3 hours, mean (SD)): 82.7 (10.42) %
- pERK Signal, % Inhibition (75 mg single dose, Day 1 3 hours, median): 86.8%
- pERK Signal, % Inhibition (75 mg single dose, Day 1 12 hours, mean (SD)): 52.2 (6.53) %
- pERK Signal, % Inhibition (75 mg single dose, Day 1 12 hours, median): 51.3%
- pERK Signal, % Inhibition (75 mg single dose, Day 1 24 hours, mean (SD)): 33.6 (4.73) %
- pERK Signal, % Inhibition (75 mg single dose, Day 1 24 hours, median): 33.6%
- median percent change in pERK relative to baseline (300 mg QD, Day 10, 12 hours post-last dose): −95.7%
- median percent change in pERK relative to baseline (300 mg QD, Day 10, 24 hours post last dose): −91.6%
- median change in pERK relative to baseline (300 mg single dose, 3 hours post-dose): −95.6%
- median change in pERK relative to baseline (300 mg single dose, 12 hours post-dose): −76.6%
- pERK Signal, % Inhibition (300 mg single dose, Day 1 1 hour, mean (SD)): 32.2 (35.11) %
- pERK Signal, % Inhibition (300 mg single dose, Day 1 1 hour, median): 29.1%
- pERK Signal, % Inhibition (300 mg single dose, Day 1 3 hours, mean (SD)): 93.4 (5.08) %
- pERK Signal, % Inhibition (300 mg single dose, Day 1 3 hours, median): 95.6%
- pERK Signal, % Inhibition (300 mg single dose, Day 1 12 hours, mean (SD)): 76.0 (7.04) %
- pERK Signal, % Inhibition (300 mg single dose, Day 1 12 hours, median): 76.7%
- pERK Signal, % Inhibition (300 mg single dose, Day 1 24 hours, mean (SD)): 66.4 (2.19) %
- pERK Signal, % Inhibition (300 mg single dose, Day 1 24 hours, median): 65.3%
- median percent change in pERK relative to baseline (600 mg BID, Day 10, 12 hours post-last dose): −100.2%
- median percent change in pERK relative to baseline (600 mg BID, Day 10, 24 hours post last dose): −101.5%
- median percent change in pERK relative to baseline (900 mg QD, Day 10, 12 hours post-last dose): −96.7%
- median percent change in pERK relative to baseline (900 mg QD, Day 10, 24 hours post last dose): −98.5%
- median change in pERK relative to baseline (900 mg single dose, 3 hours post-dose): −99.9%
- median change in pERK relative to baseline (900 mg single dose, 12 hours post-dose): −92.1%
- pERK Signal, % Inhibition (900 mg single dose, Day 1 1 hour, mean (SD)): 74.5 (38.94) %
- pERK Signal, % Inhibition (900 mg single dose, Day 1 1 hour, median): 97.9%
- pERK Signal, % Inhibition (900 mg single dose, Day 1 3 hours, mean (SD)): 99.8 (2.98) %
- pERK Signal, % Inhibition (900 mg single dose, Day 1 12 hours, mean (SD)): 92.7 (3.10) %
- pERK Signal, % Inhibition (900 mg single dose, Day 1 12 hours, median): 92.1%
- pERK Signal, % Inhibition (900 mg single dose, Day 1 24 hours, mean (SD)): 83.6 (7.00) %
- pERK Signal, % Inhibition (900 mg single dose, Day 1 24 hours, median): 85.8%
- median change in pERK relative to baseline (1500 mg single dose, 3 hours post-dose): −99%
- median change in pERK relative to baseline (1500 mg single dose, 12 hours post-dose): −96.3%
- pERK Signal, % Inhibition (1500 mg single dose, Day 1 1 hour, mean (SD)): 74.8 (45.62) %
- pERK Signal, % Inhibition (1500 mg single dose, Day 1 1 hour, median): 97.3%
- pERK Signal, % Inhibition (1500 mg single dose, Day 1 3 hours, mean (SD)): 92.8 (16.61) %
- pERK Signal, % Inhibition (1500 mg single dose, Day 1 3 hours, median): 99.0%
- pERK Signal, % Inhibition (1500 mg single dose, Day 1 12 hours, mean (SD)): 93.0 (6.35) %
- pERK Signal, % Inhibition (1500 mg single dose, Day 1 12 hours, median): 96.3%
- pERK Signal, % Inhibition (1500 mg single dose, Day 1 24 hours, mean (SD)): 94.4 (2.50) %
- pERK Signal, % Inhibition (1500 mg single dose, Day 1 24 hours, median): 94.2%
- time of maximum PD effect (Day 10 of multiple doses, post-last dose): 2 to 4 h
- inhibition at 75 mg (Day 1 1 hour, mean (SD)): 47.9%
- inhibition at 75 mg (Day 1 1 hour, median): 44.9%
- inhibition at 75 mg (Day 1 3 hours, mean (SD)): 67.5%
- inhibition at 75 mg (Day 1 3 hours, median): 79.6%
- inhibition at 75 mg (Day 1 12 hours, mean (SD)): 26.1%
- inhibition at 75 mg (Day 1 12 hours, median): 32.4%
- inhibition at 75 mg (Day 10 1 hour, mean (SD)): 62.2%
- inhibition at 75 mg (Day 10 1 hour, median): 62.7%
- inhibition at 75 mg (Day 10 3 hours, mean (SD)): 85.4%
- inhibition at 75 mg (Day 10 3 hours, median): 88.3%
- inhibition at 75 mg (Day 10 12 hours, mean (SD)): 43.5%
- inhibition at 75 mg (Day 10 12 hours, median): 48.3%
- inhibition at 75 mg (Day 10 24 hours, mean (SD)): 12.6%
- inhibition at 75 mg (Day 10 24 hours, median): 39.8%
